# Where two headings read alike, the source gives them in different places.
# Experiments:
# Oral LD50 in mice = conditions: mouse, in vivo, female Swiss CF mice, 20 g, 14 days observation, read-out: approximate oral LD50
# Procedure: (§1) The compounds were suspended in a 3% strength solution of gum arabic so as to supply, in a volume of 2 ml for the rats, the equivalent of 50, 100, 200, 400 and 800 mg/kg, and, in a volume of 1 ml for the mice, 100, 200, 400, 800 and 1,600 mg/kg and, for 1573 and 1579, 3,200 mg/kg.
# (§2) Gavage was performed by means of a metal tube, on batches of 5 animals for each series.
# (§3) The animals were observed daily for 14 days.
# [1] = system: rat hind foot kaolin-induced oedema; test: Kaolin-induced arthritis test, first experiment (decrease in inflammation, foot volume); format: in vivo; conditions: 1 h before kaolin, Table IX, read-out: percentage decrease in the inflammation
# Method in brief: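 Kaolin (0.05 ml of sterile 10% suspension) injected into metatarsal flexor sheath of rat hind foot; compounds given orally by stomach tube 1 h before. Foot volume measured by plethysmometer during early oedema (maximal 4–6 h). Value is % decrease in inflammation versus controls, mean of 10 animals per dose.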
# [2] = system: rat hind foot carragheenin-induced oedema; test: Carragheenin-induced oedema test; format: in vivo; conditions: 3 h, read-out: percentage inhibition of the inflammation; for change in vivo at 25 mg/kg: 25 mg/kg oral; for change in vivo at 50 mg/kg: 50 mg/kg oral; for change in vivo at 100 mg/kg: 100 mg/kg oral
# Oral LD50 in rats = conditions: rat, in vivo, male Wistar rats, 200-400 g, 14 days observation, read-out: approximate oral LD50
# Procedure: as §1, §2, §3
# prostacyclin synthetase = test: PGI2 production in human glomeruli (renal preparation model); format: cell-based; conditions: arachidonic acid 5 ug/ml
# Procedure: Human glomeruli synthesize both thromboxanes, via thromboxane synthetase, and prostaglandins, via prostacyclin synthetase. The experiment consists in stimulating glomerular cells with arachidonic acid (5 ug/ml) and in assaying radioimmunologically the amount of thromboxane B2 (TXB2) and prostacyclin (PGI2) produced in the presence of increasing concentrations of test products (10^-6 M to 5×10^-5 M).
# As for the previous model, the results are expressed as IC50 in comparison with a control suspension.
# [3] = system: rat hind foot kaolin-induced arthritis; test: Kaolin-induced arthritis test, second experiment, acute phase (volume of the foot at the 8th hour); format: in vivo; conditions: po, 8 h, Table IXa; for change in vivo at 25 mg/kg / change in vivo at 50 mg/kg / change in vivo at 100 mg/kg: 8th hour, read-out: percentage significant decrease in the volume of the treated foot; for ED50: foot volume, read-out: 50% active dose
# Procedure: (§4) The […] of 0.05 ml of a sterile 10% strength suspension of kaolin into the metatarsal flexor sheath of the hind foot of a rat initially induces an oedematous reaction. An inflammatory arthritis then forms.
# The early oedematous reaction appears from the first hour, and reaches its maximum between the fourth hour and the sixth hour. This is the manifestation of interest. The assessment of the volume of the foot enables the action of substances on the oedematous reaction to be studied. The measurements are carried out using a Giono and Chevilard plethysmometer.
# (§5) The test products are administered orally (stomach tube) one hour before the injection of the kaolin.
# (§6) In a second experiment, a more elaborate study was performed in order to ascertain the effect of the products, on the one hand on the acute phase of the inflammatory reaction (measured by the volume of the foot at the 8th hour), and on the other hand on the chronic phase (activity measured by the weight of the foot at the 12th hour).
# As in the previous experiment, ketoprofen was used as the comparative product:
# The results are expressed as a percentage significant decrease in the volume of the treated foot compared with the controls.
# [4] = system: rat hind foot kaolin-induced arthritis; test: Kaolin-induced arthritis test, second experiment, chronic phase (weight of the foot at the 12th hour); format: in vivo; conditions: po, 12 h, Table IXb; for change in vivo at 25 mg/kg / change in vivo at 50 mg/kg / change in vivo at 100 mg/kg: 12th hour, read-out: percentage significant decrease in the weight of the treated foot; for ED50: foot weight, read-out: 50% active dose
# Procedure: as §4, §5, §6
# As in the previous experiment, ketoprofen was used as the comparative product: […]
# 5-lipoxygenase = test: Production of LTB4 and 5-HETE by human leukocytes incubated with arachidonic acid; format: cell-based; conditions: ionophore A 23187 5 μM, arachidonic acid 10 μg/ml
# Procedure: Human polymorphonuclear leukocytes suspended with arachidonic acid and stimulated by calcium ionophore produce leukotrienes B4 (LTB4).
# The test consists in incubating fresh human leukocytes with arachidonic acid at a dose of 10 μg/ml to which a tracer dose of tritium-labelled arachidonic acid has been added. The leukocytes are stimulated with calcium ionophore A 23187 (Calbiochem, 5 μM) and the amount of 5-hydroxyeicosatetraenoic acid (5-HETE) and LTB4 produced is then assayed by HPLC.
# 5-HETE is the metabolite produced from arachidonic acid by 5-lipoxygenase, and from which LTB4 is produced by the action of an isomerase.
# The results are expressed as an integration of the surface of the peak obtained in HPLC by comparison with that obtained with control leukocytes which have not been incubated with the test products.
# The results in brackets are expressed as a percentage inhibition of the production of 5-HETE and LTB4.
SMILES,LD50 at 336 h (Oral LD50 in mice),IC50 (prostacyclin synthetase),change in vivo at 25 mg/kg [3],change in vivo at 50 mg/kg [3],change in vivo at 100 mg/kg [3],ED50 [3],"change in vivo at 25 mg/kg ([2]; second experiment, Table Xa)","change in vivo at 50 mg/kg ([2]; second experiment, Table Xa)","change in vivo at 100 mg/kg ([2]; second experiment, Table Xa)",change in vivo at 25 mg/kg [4],change in vivo at 50 mg/kg [4],change in vivo at 100 mg/kg [4],ED50 [4],"5-HETE, integration of the surface of the HPLC peak (5-lipoxygenase)",other results
"O=C(O)CCCCCCCCCCNS(=O)(=O)c1ccc(Cl)cc1C(=O)c1ccccc1 [Compound 1572, 11-(2-benzoyl-4-chlorobenzenesulphonamido)undecanoic acid]",> 1600 mg/kg,100 µM,–,–,–,–,–,–,–,–,–,–,–,–,"change in vivo at 25 mg/kg ([1]; 25 mg/kg oral): -17%; change in vivo at 50 mg/kg ([1]; 50 mg/kg oral): -26%; change in vivo at 100 mg/kg ([1]; 100 mg/kg oral): -50%; change in vivo at 25 mg/kg ([2]; first experiment, Table X): -18%; change in vivo at 50 mg/kg ([2]; first experiment, Table X): -25%; change in vivo at 100 mg/kg ([2]; first experiment, Table X): -49%; LD50 at 336 h (Oral LD50 in rats): > 800 mg/kg"
"O=C(O)CCCCCCCCCCNS(=O)(=O)c1ccc(Cl)cc1C(=O)c1ccccc1Cl [Compound 1574, 11-[2-(2-chlorobenzoyl)-4-chlorobenzenesulphonamido]undecanoic acid]",> 1600 mg/kg,100 µM,-60 ± 6%,-65 ± 6%,-68 ± 5%,25 mg/kg,-40%,-43%,-45%,-58 ± 5%,-60 ± 5%,-60 ± 5%,25 mg/kg,–,–
"O=C(O)CCCCCCCCCCCNS(=O)(=O)c1ccc(Cl)c(C(=O)c2ccccc2)c1 [Compound 1736, 12-(3-benzoyl-4-chlorobenzenesulphonamido)dodecanoic acid]",–,> 50 µM,–,-50 ± 5%,-55 ± 5%,50 mg/kg,-45%,-48%,-55%,-45 ± 5%,-55 ± 5%,-58 ± 5%,50 mg/kg,384,percentage inhibition of the production of 5-HETE (in brackets) (5-lipoxygenase): 89.6%; percentage inhibition of the production of LTB4 (in brackets) (5-lipoxygenase): 100%
O=C(O)CCCCCCCCCCNS(=O)(=O)c1ccc(Cl)cc1C(O)c1ccccc1Cl (centres unmarked) [Compound 1796],–,50 µM,-50 ± 5%,-55 ± 5%,-60 ± 5%,25 mg/kg,-45%,-48%,-55%,-50 ± 5%,-52 ± 5%,-58 ± 5%,25 mg/kg,127,"LTB4, integration of the surface of the HPLC peak (5-lipoxygenase): 152"
O=C(O)CCCCCCCCCCNS(=O)(=O)c1ccc(Cl)cc1Cc1ccccc1Cl [Compound 1797],–,> 50 µM,-50 ± 5%,-55 ± 5%,-60 ± 5%,25 mg/kg,-45%,-48%,-55%,-50 ± 5%,-58 ± 5%,-60 ± 5%,25 mg/kg,–,–

# Source: patent US4980349A, “Sulphonamides derived from diarylmethanes, the processes for preparing them and pharmaceutical compositions containing them” (SANOFI, priority 1986, dated 1990)
